This is an account of results in US7846903B2, “Type II cubic liquid crystal composition” (National Institute of Advanced Industrial Science and …, priority 2004, dated 2010).

Series [1] in a line: Formation and structure of cubic liquid crystals by polarizing microscopy (penetration method) and SAXS. Format: physicochemical. From the text: Whether or not the amphiphilic lipid/water system forms cubic liquid crystals and whether or not such composition is type I or II can be easily determined by the penetration method. A small amount (several mg) of amphiphilic lipids is placed on a glass slide for a microscope, and slight pressure is applied with a glass cover to form a thin layer of amphiphilic lipids (diameter: about 1 to 5 mm) with a thickness of about 10 μm in the gap between the glass slide and the glass cover. Upon addition of water or an aqueous medium from a side of the gap between the glass slide and the glass cover by capillary action, water gradually invades the amphiphilic lipid thin layer from the exterior edge, and a water content gradient is formed from the amphiphilic lipid thin layer/water interface toward the inside of the amphiphilic lipid thin layer. Polarizing microscopic observation thereof enables the determination of a phase type formed depending on the concentration of the amphiphilic lipid/water system. […] In FIG. 2, 4 regions are observed. The rightmost region in the photograph indicates a water region, and the other regions indicate hydrous amphiphilic lipid regions. In the photograph, the rightmost regions indicates the highest water content and the leftmost region indicates a region of amphiphilic lipids that has not yet been penetrated by water. […] Since cubic liquid crystals are stably formed at the interface of excess water and the amphiphilic lipid portion, such crystals are found to be of type II.
To this end, whether or not the liquid crystal structure has cubic lattices may be investigated by the small-angle x-ray scattering (SAXS) assay. In this process, a sample of an amphiphilic lipid/water system at a given concentration may be introduced into a quartz X-ray capillary tube, the capillary may be sealed with an oxygen burner, and the resultant may be subjected to the SAXS assay.
The cubic liquid crystal composition of the present invention is not particularly limited. […] Thus, spaces and lattice constants can be easily determined. The peak values of small angle X-ray scattering or the cubic lattice size of cubic liquid crystals in the presence of an excess aqueous solvent are at constant levels regardless of the lipid concentration. The coexistence state of cubic liquid crystals and an excess aqueous medium can be confirmed by the SAXS assay. Thus, whether or not the cubic liquid crystals are of type II can be easily determined.
In equations, nL and nW are actually measurable, and ac can be measured by the SAXS experiment. Thus, the dhc value can be determined based on equations (ii) and (iii). […] Based on such comparison, whether or not the cubic liquid crystal structure is of a bicontinuous type can be determined.
Mono-O-(3,7,11,15-tetramethylhexadecyl)pentaerythritol (hereafter referred to as “mono-O-(phytanyl)pentaerythritol,” formula (5) above) and pure water were introduced into a mixing device, and incubation was carried out while performing 100 or more times of mixing operations at room temperature (23° C.) over the period of 48 hours. Thus, a homogeneously mixed sample of mono-O-(phytanyl)pentaerythritol/water system was obtained. This sample of mono-O-(phytanyl)pentaerythritol/water system appeared to be a transparent gel composition.
Subsequently, the thus obtained sample of mono-O-(phytanyl)pentaerythritol/water system (the concentration of the amphiphilic compound: 74.6% by mass) was observed by polarizing microscopy. In entire region of the lipid portions, optically isotropic textures peculiar to the cubic liquid crystals were observed (FIG. 3). In FIG. 3, the right region indicates water and the left region indicates the sample of mono-O-(phytanyl)pentaerythritol/water system. […] Such observation indicates the formation of cubic liquid crystals.
Subsequently, the sample of mono-O-(phytanyl)pentaerythritol/water system was confirmed to be a cubic liquid crystal by small-angle x-ray scattering (SAXS). […]

Series [2] is described as follows: Krafft temperature (TK) by DSC of amphiphilic compound/water system. The format is physicochemical. Particulars: for Krafft temperature (° C.): amphiphilic compound alone; for TK (Krafft temperature): compound/water system. As for the experimental part:
Liquid crystals such as cubic liquid crystals formed by amphiphilic lipids are formed only at the Krafft temperature (TK), as determined depending on types and concentrations of amphiphilic lipids, or higher. Furthermore, liquid crystals generally undergo a phase transition upon changes in the concentration of the amphiphilic lipid or temperature. Accordingly, the maximal temperature (Tmax) at which a given liquid crystal structure can be stably present is also determined depending on lipid type and concentration of amphiphilic lipid. Thus, a liquid crystal structure formed by a given type of amphiphilic lipid is stably formed in the temperature range between TK and Tmax. The correlation between TK-Tmax and the concentration of the amphiphilic lipid is generally indicated as a “concentration-temperature dependent phase diagram” of the amphiphilic lipid/water system. The Krafft temperature of the amphiphilic lipid can be determined by a method known in the art, such as a method involving the preparation of such a phase diagram (e.g., Laughlin, R. G., “The Aqueous Phase Behavior of Surfactants,” 1994, Academic Press London, pp. 106-117). The Krafft temperature of a mixture of two or more amphiphilic lipids can be determined by the same method.
In the cubic liquid crystal composition of the present invention, stable bicontinuous type II cubic liquid crystals are formed at low temperatures, such as lower than 6° C. In the liquid crystal composition of the present invention, stable bicontinuous type II cubic liquid crystals are typically formed between −10° C. (or at the freezing temperature of the aqueous medium used or higher) and 80° C., and preferably between 0° C. and 50° C. The Krafft temperature of the amphiphilic lipid can be easily determined by, for example, DSC assay of an aqueous solution containing 1% to 85% by mass of amphiphilic lipid or by observing the melting behavior of the amphiphilic lipid under a (polarizing) microscope. More precisely, such temperature may be determined in accordance with a conventional technique involving the preparation of a phase diagram (e.g., Laughlin, R. G., “The Aqueous Phase Behavior of Surfactants,” 1994, Academic Press, London, pp. 106-117).
The Krafft temperatures of these amphiphilic compounds and mixtures thereof determined by the analyses described below are shown in Table 2-1 and Table 2-2.
Subsequently, the sample of mono-O-(phytanyl)pentaerythritol/water system was subjected to differential scanning calorimetry (DSC) in a temperature range between −45° C. and 70° C. DSC analysis employed the Seiko SSC/560U differential scanning calorimeter (Seiko Instruments Inc.). The sample of mono-O-(phytanyl)pentaerythritol/water system (72.4% by mass) prepared by the above method was sealed in a DSC cell, and the sample was incubated while cooling at −45° C. for 3 hours to thoroughly form a hydrated solid of mono-O-(phytanyl)pentaerythritol (hereafter abbreviated as “hydrated solid”). Subsequently, this hydrated solid was heated at a rate of temperature increase of 0.5° C./minute and a melting behavior of the hydrated solid was inspected by DSC analysis. As a result, an endothermic peak resulting from melting of the hydrated solid that begins at around −40° C. and ends at around −27° C. and an endothermic peak resulting from ice melting observed between −10° C. and 1° C. were observed, as shown in FIG. 4. In FIG. 4, the left peak is the endothermic peak resulting from melting of the hydrated solid and the right peak is the endothermic peak resulting from ice melting. Although analysis was conducted up to 70° C., other thermal transition was not observed. Substantially the same results were obtained at other concentrations. Thus, the TK of mono-O-(phytanyl)pentaerythritol was concluded to be 0° C. or lower.
A general note: In DSC, transitions show as peaks or steps in heat flow.

Setting [3] is: lipid alone, total amphiphilic compound content 60% by mass (excess water).

Some results are limits rather than exact numbers.

For `CC(C)CCCC(C)CCCC(C)CCCC(C)CCOCC(O)CO` (stereo not drawn) [1-O-(3,7,11-15-tetramethylhexadecyl)glycerol, reference compound], the “liquid crystal phase formed” value in series [1] (mixed with water, polarizing microscopy and/or SAXS) is “type II hexagonal liquid crystals”.

In the case of `CC(C)CCCC(C)CCCC(C)CCCC(C)CCOCC(CO)(CO)CO` (stereo not drawn) [formula (5), mono-O-(3,7,11,15-tetramethylhexadecyl)pentaerythritol], in series [2], the “Krafft temperature (° C.)” value is 0 °C or lower and the “TK (Krafft temperature)” value was at most 0 °C. Besides, the “maximal temperature at which the cubic liquid crystal structure is formed” value in series [1] came to 40 °C. This molecule showed a lattice constant in series [1] (56.7% by mass, Pn3m cubic liquid crystals, 1° C.) of 8.2 nm. Also, in series [1] (74.6% by mass, Ia3d cubic liquid crystals, 1° C.), the lattice constant was 12.3 nm. In addition, the “Temperature at which formation of cubic liquid crystals was observed (° C.)” value (“Temperature at which formation” below) in series [1] (74.6% by mass, two-phase system of Ia3d and Pn3m cubic liquid crystals) is 25 (Two-phase system of Ia3d and Pn3m cubic ° C. The “dhc value of bilayer membrane of the cubic liquid crystal structure” value in series [1] (calculated based on SAXS results) was 1.17±0.1 nm. Further, in series [1] (setting [3]), the “diameter of the water channel of the cubic liquid crystals” value was determined as 2.5 nm and the “lattice constant of the cubic liquid crystals” value worked out at 7.06 nm.

Consider `CC(C)CCCC(C)CCCC(C)CCCCOCC(O)C(O)CO` (stereo not drawn) [formula (3), 1-O-(5,9,13-trimethyltetradecyl)erythritol], for which the “Krafft temperature (° C.)” value in series [2] was 0 °C or lower. Further, the “TK (Krafft temperature)” value in series [2] is at most 0 °C. Besides, the lattice constant was 17.3 nm in series [1] (Ia3d, 53.7% by mass, 20° C.); 17.2 nm in series [1] (Ia3d, 53.7% by mass, 35° C.); 17.1 nm in series [1] (Ia3d, 53.7% by mass, 40° C.). For the same molecule, the “Temperature at which formation” value in series [1] (Table 6, 53.7% by mass, Ia3d + Pn3m) was 40 (Ia3d + Pn3m cubic liquid crystals) ° C.

Turning to `CC(C)CCCC(C)CCCC(C)CCCCOCC(CO)(CO)CO` (stereo not drawn) [formula (12), mono-O-(5,9,13-trimethyltetradecyl)pentaerythritol], in series [2], the “Krafft temperature (° C.)” value was 0 °C or lower and the “TK (Krafft temperature)” value was at most 0 °C.

As for `CC(C)CCCC(C)CCCC(C)CCCC(C)CCCC(=O)OC[C@H](O)[C@H]1OC(=O)C(O)=C1O` (stereo partly drawn) [formula (15), 6-O-(5,9,13,17-tetramethyloctadecanoyl)-L-ascorbic acid], the “Krafft temperature (° C.)” value in series [2] is 0 °C or lower. Further, the “TK (Krafft temperature)” value in series [2] was at most 0 °C. Further, the lattice constant in series [1] (Ia3d, 69% by mass, 30° C.) was found to be 17.4 nm; in series [1] (Ia3d, 69% by mass, 40° C.), 16.9 nm; in series [1] (Ia3d, 69% by mass, 50° C.), 17.0 nm; in series [1] (Pn3m, 61% by mass, 1° C.) it was 12.2 nm; in series [1] (Pn3m, 61% by mass, 20° C.), 12.2 nm; in series [1] (Pn3m, 61% by mass, 30° C.) it was 12.1 nm. Besides, the lattice constant is listed as 11.4 nm in series [1] (Pn3m, 61% by mass, 40° C.); 11.0 nm in series [1] (Pn3m, 61% by mass, 50° C.); 10.1 nm in series [1] (Pn3m, 61% by mass, 60° C.). Besides, the “Temperature at which formation” value in series [1] (Table 13, 69% by mass, two-phase system of Pn3m and Ia3d cubic liquid crystals) was 20 (Two-phase system of Pn3m and Ia3d ° C.

As for `CC(C)CCCC(C)CCCC(C)CCCC(C)CCCC(=O)OCC(O)C(O)CO` (stereo not drawn) [formula (7), 1-O-(5,9,13,17-tetramethyloctadecanoyl)erythritol], in series [2], the “Krafft temperature (° C.)” value was 0 °C or lower and the “TK (Krafft temperature)” value is at most 0 °C.

With `CC(C)CCCC(C)CCCC(C)CCCC(C)CCCCOC1OC[C@@H](O)C(O)C1O` (stereo partly drawn) [formula (10), 1-O-(5,9,13,17-tetramethyloctadecyl)-β-D-xylopyranoside], the “Krafft temperature (° C.)” value in series [2] is 0 °C or lower. In addition, the “TK (Krafft temperature)” value in series [2] was at most 0 °C. Besides, the lattice constant was 10.1 nm in series [1] (61.5% by mass, 1° C.); 9.9 nm in series [1] (61.5% by mass, 30° C.); 9.5 nm in series [1] (61.5% by mass, 40° C.).

For the molecule `CC(C)CCCC(C)CCCC(C)CCCC(C)CC(=O)OCC(O)C(O)CO` (stereo not drawn) [formula (4), 1-O-(3,7,11,15-tetramethylhexadecanoyl)erythritol], the “Krafft temperature (° C.)” value in series [2] was 0 °C or lower. Further, in series [2], the “TK (Krafft temperature)” value was at most 0 °C. The lattice constant in series [1] (Pn3m, 52.3% by mass, 1° C.) is 11.4 nm; in series [1] (Pn3m, 52.3% by mass, 25° C.), 11.3 nm; in series [1] (Pn3m, 52.3% by mass, 45° C.), 10.1 nm.

For `CC(C)CCCC(C)CCCC(C)CCCC(C)CC(=O)OCC(CO)(CO)CO` (stereo not drawn) [formula (6), mono-O-(3,7,11,15-tetramethylhexadecanoyl)pentaerythritol], in series [2], the “Krafft temperature (° C.)” value was 0 °C or lower and the “TK (Krafft temperature)” value is at most 0 °C. In addition, the lattice constant in series [1] (58.9% by mass, 25° C.) was 10.6 nm. This molecule also gave a lattice constant in series [1] (58.9% by mass, 55° C.) of 8.3 nm. Further, the “Temperature at which formation” value in series [1] (Table 4, 56.0% by mass, two-phase system of Pn3m cubic and lamellar liquid crystals) was 1 (Two-phase system of Pn3m cubic liquid ° C.

Turning to `CC(C)CCCC(C)CCCC(C)CCOCC(O)C(O)CO` (stereo not drawn) [formula (2), 1-O-(3,7,11-trimethyldodecyl)erythritol], the “Krafft temperature (° C.)” value in series [2] is 0 °C or lower.
